{"source": "patent US7662824B2", "about": "“Acylhydrazones as kinase modulators” (Janssen Pharmaceutica NV, priority 2005, dated 2010)", "key": {"[1]": {"target": "T1, c-Met (Homo sapiens, UniProt P08581)", "assay": "Fluorescence polarization assay on the kinase activity of c-Met", "format": "biochemical", "design": "The c-Met kinase domain consists amino acid 1046-1390 of the c-Met protein; made in house; host or cells: Sf9 insect cells with baculovirus", "settings": "6H-TEV-cMet, poly Gly4Tyr substrate, 10 μM ATP; read-out: c-Met FP Enz IC50", "from_the_text": "A fluorescence polarization assay (FP) was developed for screening of compounds that decreases the kinase activity of c-Met.\nA protein (6H-TEV-cMet) comprising c-Met kinase domain was cloned, recombinantly expressed and purified following a procedure similar to that as described in Example A. The protein comprises a His tag consisting of six histidines at its N-terminal, a TEV protease cleavage site, and the c-Met kinase domain. The c-Met kinase domain consists amino acid 1046-1390 of the c-Met protein as listed in GenBank protein accession number P08581.\nFor the c-Met kinase assay, the 6H-TEV-cMet was used as the enzyme, and a poly Gly4Tyr peptide (Sigma, P-0275) was used as the substrate. The kinase reaction was performed in a volume of 10 μl in HE microplates (LJL Biosystems). Assay conditions were as follows: 100 mM HEPES pH 7.5, 0.01% Tween-20, 1 mM DTT, 5 mM MgCl2, 10 μM ATP, 10 μg/ml poly Gly4Tyr. The kinase reaction was initiated upon addition of 10 nM 6H-TEV-cMet. After a 12 minute incubation at room temperature the reaction was terminated with […] 50 mM EDTA.\nPhosphorylation of the peptide substrate was detected with PanVera Tyrosine Kinase Assay Kit, Green reagents (P2837). Five minutes after the addition of EDTA, 10 μl of antibody/tracer mix (Pan Vera reagents, 1:1:3 dilution of antibody: Tracer: FP dilution buffer, Cat. # P2837) was added to each well. Plates were allowed to incubate for 30 minutes at room temperature and fluorescence polarization was measured with an LJL Analyst instrument (Molecular Devices; Sunnyvale, Calif.) with excitation=485 nm filter and emission=530 nm filter. IC50 values were calculated from triplicate sets of data using Graphpad Prism software (Graphpad Software; San Diego, Calif.)."}, "[2]": {"assay": "Aqueous solubility assay", "settings": "water with 0.4% DMSO, kinetic from dmso stock", "protocol": "Water, PBS and aqueous HCl at pH2 having a final DMSO content of 0.4%, with the final DMSO concentration reaching 40 μM. Samples were placed in the incubator and shaken for 15 minutes."}, "[3]": {"target": "T1, c-Met", "assay": "Delfia autophosphorylation kinase assay on the c-Met", "format": "biochemical", "design": "The purified His6 tagged cytoplasmic domain of c-Met was diluted to a concentration of 500 ng/ml; made in house; host or cells: Sf9 insect cells with recombinant baculovirus; Large-scale expression and purification were done by the contract lab Pan Vera", "settings": "His6 tagged cytoplasmic domain of c-Met, 1 μM ATP; read-out: c-Met Delfia Autophos IC50", "procedure": "This example describes the cloning, expression, and purification of the cytoplasmic domain of c-Met which has the c-Met receptor tyrosine kinase activity.\nA DELFIA time resolved fluorescence assay was developed for screening of compounds that decreases the autophosphorylation thus the kinase activity of c-Met.\nThe DELFIA assay is non-radioactive. The autophophorylation of the c-Met is measured by an anti-phosphotyrosine antibody coupled to an Europium tag.\nA major advantage of this format is that it allowed for the development of an autophosphorylation assay using Ni-chelate plates which bind the hexa-his tag on the recombinant Met kinase. Autophosphorylation assay allows to use a known substrate, Met kinase itself, for the phosphorylation. The DELFIA Met autophosphorylation assay is very sensitive with a signal to noise ratio in excess of 50:1.\nThe assay procedure for screening is as follows. The purified His6 tagged cytoplasmic domain of c-Met was diluted to a concentration of 500 ng/ml in enzyme dilution buffer (50 mM Tris-HCl, pH8.0, 0.1% BSA) and dispensed to assay plates at a volume of 50 μl per well. Black opaque HisGrab Nickel coated 96 well plates (Pierce, Rockford, Ill.) were selected to run the assay. Next, 2.5 μl of compound in 40% DMSO was added to test wells, 2.5 μl of 40% DMSO only was added to the negative control wells. The autophosphorylation reaction was initiated upon the addition of 50 μl of reaction buffer, 50 mM Tris-HCl, pH 8.0, 10 mM MgCl2, 0.1 mM Na3VO4, 1 mM DTT, 1 μM ATP. Plates were incubated at room temperature for 1 hour followed by 2 washes with 200 μl/well of PBS. Europium conjugated anti-phosphotyrosine antibody, Eu-PY20 from Perkin Elmer was diluted to 50 ng/ml in Delfia AB buffer (Perkin Elmer, Boston, Mass.), added to the 96 well assay plates at a volume of […], and incubated at room temperature for 2 hours. Assay plates were then washed 4 times each with 200 μl/well of Delfia wash buffer (Perkin Elmer). After the final wash 150 μl of Delfia Enhancement solution (Perkin Elmer) was added to each well of the assay plate and incubated at room temperature for 1 hour. Plates were read on an LJL Analyst instrument (Molecular Devices; Sunnyvale, Calif.) with filter settings of 360 excitation, 620 emission, and 410 dichroic. IC50 values were calculated using Graphpad Prism software (Graphpad Software; San Diego, Calif.)."}}, "data": [{"smiles": "CN(C)CCNC(=O)c1cc(Br)c2c(c1)NC(=O)/C2=N\\NC(=O)Cc1ccc2c(c1)CCO2", "note": "[Example 8, 4-Bromo-3-[(2-2,3-dihydro-benzofuran-5-yl-acetyl)-hydrazono]-2-oxo-2,3-dihydro-1H-indole-6-carboxylic acid (2-dimethylamino-ethyl)-amide]", "values": [{"measurement": "IC50", "setting": "[1]", "result": 10, "unit": "nM"}, {"measurement": "solubility at 15 min", "setting": "[2]", "result": 41.1, "unit": "µM"}, {"measurement": "IC50", "setting": "[3]", "result": 1, "unit": "nM"}]}]}
